Results taken from patent publication US20120277257A1, “Methods of Treating Diseases, Pharmaceutical Compositions, and Pharmaceutical Dosage Forms” (MYREXIS, INC., priority 2009, published 2012).

Tests used:
[1] = tested on: NCI-N87 Her2+ gastric cancer; experiment: NCI-N87 (Her2+) gastric cancer xenograft in athymic nude mice; type: in vivo
Experimental: The efficacy of Compound 1 was compared to that of SNX-5422 (Serenex, Pfizer, Inc.) on the growth of NCI-N87 (Her2+) human gastric cancer cells as a xenograft in athymic nude mice model. Animals were dosed with either 200 mg/kg of Compound 1 on days 1 through 21 or 40 mg/kg of SNX-5422 thrice weekly for three weeks. Tumor volumes and body weights were determined from Days 1 to 39.
Five million NCI-N87 cells were implanted subcutaneously in the right flank of female nude mice (Hsd:athymic nude-Foxn1^nu). When the median tumor volume was approximately 123 mm^3, mice were randomized into three cohorts of ten animals. One cohort was dosed orally with vehicle, one cohort was dosed orally with Compound 1 (200 mg/kg) formulated in vehicle, and one cohort was dosed orally with SNX-5422 (40 mg/kg) formulated in dimethylacetamide/polyethylene glycol 300. Vehicle and Compound 1 were administered on days 1-21 and SNX-5422 was administered thrice weekly on Days 1, 3, 5, 8, 10, 12, 15, 17 and 19. The mice were observed daily for mortality and signs of toxicity.
Xenografted mice bearing N-87 tumors (median volume ˜125 mm^3) were dosed orally with Compound 1 for three weeks with the dosing schedules indicated in FIG. 4.
Additionally, xenografted mice bearing N-87 tumors (median volume ˜115 mm^3) were dosed orally with Compound 1 for twenty-one days at 200 mg/kg, once daily or 100 mg/kg, twice-daily as indicated in FIG. 5. Tumor growth inhibition (TGI) was monitored up to Day 39.

[2] = Plasma pharmacokinetics in N-87 tumor-bearing nude mice; type: in vivo; settings: mouse, 200 mg/kg single dose, median values (n = 6)
Experimental: Xenografted mice bearing N-87 tumors (median volume ˜425 mm^3) were given a single oral dose of Compound 1 (200 mg/kg). Blood, tumor and liver samples (n=6) were collected at 0.25, 0.5, 1, 2, 4, 8, 12, 24, 36 and 48 h post-dose and used to determine Compound 1 concentrations in the plasma and Hsp70 RNA levels in tumor and liver samples (See FIG. 6). Hsp70 RNA levels were determined by qRT-PCR.

SMILES: C[C@H](O)C(=O)N1CCC(CCn2c(Sc3cc4c(cc3Br)OCO4)nc3c(N)ncnc32)CC1 [Compound 1, (2S)-1-[4-(2-{6-amino-8-[(6-bromo-1,3-benzodioxol-5-yl)thio]-9H-purin-9-yl}ethyl)piperidin-1-yl]-1-oxopropan-2-ol]
- tumor regression ([1]; 200 mg/kg oral, 5-days-on/2-days-off, after 3 cycles): 44% regression after 3 cycles
- tumor regression ([1]; 200 mg/kg oral, QOD (once every-other-day) for three weeks, Day 21): 7%
- tumor regression ([1]; 200 mg/kg oral, daily for 21 days, Day 21 (dosing schedule study)): 40%
- decrease in median tumor volume ([1]; 200 mg/kg oral, days 1-21, by day 21): 40%
- TGI (tumor growth inhibition) ([1]; 200 mg/kg oral, twice weekly for three weeks, Day 21): 100%
- TGI (tumor growth inhibition) ([1]; 200 mg/kg oral, weekly (Days 1, 8, 15), Day 21, p = 0.1): 54% TGI (p = 0.1) Day 21
- TGI (tumor growth inhibition) ([1]; 400 mg/kg oral, twice weekly for three weeks, Day 21): 95%
- tumor growth inhibition compared with SNX-5422 ([1]; Compound 1 200 mg/kg daily vs SNX-5422 40 mg/kg thrice weekly): as effective as SNX-5422
- Cmax ([2]; oral): 21800 ng/mL
- AUC(0-t) ([2]; oral, read-out: AUC(0-24)): 136 µg·h/mL
- Tmax ([2]; po): 4 h
- half-life ([2]; po): 4.8 h
